Data: article PMC11281459 (Viruses, 2024)

Key:
SARS-CoV-2 [1] = test: microbe, parasite or virus in culture; type: cell-based; conditions: Severe acute respiratory syndrome coronavirus 2, VeroE6/TMPRSS2, 48 h, read-out: IC50 values across different SARS-CoV-2 Omicron subvariants
SARS-CoV-2 [2] = test: microbe, parasite or virus in culture; type: cell-based; conditions: Severe acute respiratory syndrome coronavirus 2, VeroE6/TMPRSS2, 72 h, read-out: EC50 across SARS-CoV-2 Omicron subvariants (CPE by CellTiter-Glo)

Q: Which results are given for CNC(=O)C(=O)[C@H](CCC(C)(F)F)NC(=O)[C@@H]1[C@H]2CCC[C@H]2CN1C(=O)[C@@H](NC(=O)OC)C(C)(C)C [MK-7845]?
A: IC50 (SARS-CoV-2 [1]): 80 to 300 nM; EC50 (SARS-CoV-2 [2]): 90 to 330 nM
